This passage reports IC50 and melting point results from patent US20230295162A1 (EÖTVÖS LORÁND TUDOMÁNYEGYETEM, priority 2020, published 2023).

The subject of series [1] is H520 lung carcinoma cell line. Nature of the series: CellTiter-Glo IC50 (Example 19). Format: cell-based. To be noted: Homo sapiens, NCI-H520, 72 h. As for the experimental part: (§1) Some representative imipridones and ONC212 as reference were further tested on the following human malignant cell lines: PC3 and LNCap (prostate carcinoma); BxPC3, MiaPaCa2 and Panc1 (pancreatic cancer); A549, HCC827, H1993 and H520 (lung carcinoma); MDA-MB-453 and MDA-MB-231 (breast cancer) (see Table 2 and FIGS. 1-11).
(§2) Cell lines were maintained according to the instructions provided by ATCC (https://www.lgcstandards-atcc.org/) in a 5% CO2 humidified incubator maintained at 37° C. temperature. Effects of compounds on cell viability were measured via CellTiter-Glo® luminescent cell viability assay (Promega, Madison, WI, USA) Cells were plated at 1000 cells/well onto a flat-bottomed, white 96 well plate (BRANDplates, cat. no.: 781965). […] After the treatment, medium was removed and CellTiter-Glo® reagent was added. The luminescence signal was recorded using a microplate reader (BioTek Synergy 2 Multi-Mode Reader, BioTek, Winooski, VT, USA).
(§3) Cell viability data (% of untreated control cells) was evaluated with Microsoft Excel. Dose-response curves (using a non-linear regression model, log (inhibitor) vs response, variable slope) were generated and IC50 values were determined using Graph Pad Prism 5.02 software (GraphPad Software, San Diego, CA, USA).
(In general: ATP-based viability assays read luminescence as a measure of living cells.)

The subject of series [2] is MiaPaCa2 pancreatic cancer cell line. The series is described as follows: CellTiter-Glo IC50 (Example 19). The format is cell-based. The note with it: Homo sapiens, MIA PaCa-2, 72 h. As for the experimental part: as §1, §2, §3
In series [3] the test system is PC3 human prostate cancer cell line. Nature of the series: CellTiter-Glo IC50 (Example 19). The note with it: 72 h. The format is cell-based. As for the experimental part: as §1, §2, §3
Series [4] deals with BxPC3 pancreatic cancer cell line. The series is described as follows: CellTiter-Glo IC50 (Example 19). Format: cell-based. The note with it: Homo sapiens, BXPC-3, 72 h. The protocol:
as §1, §2, §3

The subject of series [5] is Panc1 pancreatic cancer cell line. The series is described as follows: CellTiter-Glo IC50 (Example 19). Format: cell-based. The note with it: Homo sapiens, PANC-1, 72 h. The protocol: as §1, §2, §3
In series [6] the test system is H1993 lung carcinoma cell line. The series is described as follows: CellTiter-Glo IC50 (Example 19). The format is cell-based. The note with it: Homo sapiens, NCI-H1993, 72 h. The protocol:
as §1, §2, §3

Series [7] concerns HCC827 lung carcinoma cell line. Nature of the series: CellTiter-Glo IC50 (Example 19). Format: cell-based. To be noted: Homo sapiens, 72 h. As for the experimental part: as §1, §2, §3
The subject of series [8] is LNCap human prostate cancer cell line. Nature of the series: CellTiter-Glo IC50 (Example 19). The format is cell-based. The note with it: 72 h. The protocol: as §1, §2, §3
The subject of series [9] is A549 lung carcinoma cell line. The series is described as follows: CellTiter-Glo IC50 (Example 19). The format is cell-based. The note with it: Homo sapiens, 72 h. The protocol:
as §1, §2, §3

Series [10] relates to EBC-1 lung cancer cell line. The series is described as follows: High-throughput screening, CellTiter-Glo cell viability assay at 100 nM. The note with it: Homo sapiens, EBC-1, HTS, compounds at 100 nM, 72 h, read-out: cytotoxicity expressed in IC50, EBC-1 (results of High throughput screening). The format is cell-based, human.
For series [11], the system named is H2228 lung cancer cell line. The description is as above. The format is cell-based, human. To be noted: Homo sapiens, NCI-H2228, HTS, compounds at 100 nM, 72 h, read-out: cytotoxicity expressed in IC50, H2228 (results of High throughput screening).
The test system of series [12] is Detroit 562 cell line. Nature of the series: Additional in vitro IC50 tests (Table 3). Format: cell-based. The note with it: Homo sapiens. As for the experimental part: as §2, §3
The subject of series [13] is H2228 cell line. Nature of the series: Additional in vitro IC50 tests (Table 3). The format is cell-based. To be noted: Homo sapiens, NCI-H2228. The protocol: as §2, §3
The subject of series [14] is Fadu cell line. The series is described as follows: Additional in vitro IC50 tests (Table 3). The format is cell-based. To be noted: Homo sapiens. The protocol:
as §2, §3

Series [15] deals with SCC-25 cell line. The series is described as follows: Additional in vitro IC50 tests (Table 3). Format: cell-based. To be noted: Homo sapiens. The protocol:
as §2, §3

Series [16] deals with EBC-1 cell line. The series is described as follows: Additional in vitro IC50 tests (Table 3). To be noted: Homo sapiens. Format: cell-based. As for the experimental part: as §2, §3
In series [17] the test system is MDA-MB-453 breast cancer cell line. Nature of the series: CellTiter-Glo IC50 (Table 3). The format is cell-based. To be noted: Homo sapiens. As for the experimental part: as §1, §2, §3
Series [18] deals with MDA-MB-231 breast cancer cell line. The series is described as follows: CellTiter-Glo IC50 (Table 3). The format is cell-based. To be noted: Homo sapiens. The protocol:
as §1, §2, §3

Series [19] relates to representative cell lines. The series is described as follows: Cytotoxicity on representative cell lines (summary statement). Format: cell-based. The note with it: Homo sapiens; summary range, ca.
Series [20] relates to PANC-1 (human pancreatic carcinoma) cells. The series is described as follows: Impedance-based viability assay (xCELLigence SP), long treatment. Format: cell-based. The note with it: 72 h, read-out: cytotoxicity expressed in IC50, PANC-1. The text has this:
(Gibco®/Invitrogen Corporation, New York, NY, USA).
Data obtained from each experiment represent mathematical averages.

Broadly, the IC50 is the concentration that inhibits the measured activity by half. As usually defined, the melting point is the temperature of the solid-liquid transition.

Some results are limits rather than exact numbers.

Regarding `O=C1C2=C(CCN(Cc3cc(F)cc(F)c3)C2)N2CCN=C2N1Cc1ccc(Br)cc1` [I/39, 4-(4-Bromobenzyl)-7-(3,5-difluorobenzyl)-2,4,6,7,8,9-hexahydroimidazo[1,2-a]pyrido[3,4-e]pyrimidin-5(1H)-one], the melting point came out at 173.5 °C. In series [1], the half-maximal inhibitory concentration (IC50) was found to be 3 nM. Also, the IC50 in series [2] is 4 nM. The 50% inhibitory concentration (IC50) in series [3] turned out to be 2 nM. Also, the IC50 in [4] came to 3 nM. Moreover, the half-inhibitory concentration (IC50) in series [5] came out at 4 nM. Moreover, in series [6], the IC50 is 3 nM. Further, the concentration for half-maximal inhibition (IC50) in [7] came to 4 nM. In addition, the IC50 in series [8] was determined as 2 nM. In series [9], the IC50 stood at 4 nM. The concentration for half-maximal inhibition (IC50) in series [10] is less than 100 nM. Further, in series [11], the IC50 was less than 100 nM. Moreover, in series [12], the IC50 is 3 nM. Besides, in [13], the 50% inhibitory concentration (IC50) worked out at 6 nM. In addition, in series [14], the IC50 was 5 nM. Further, the IC50 in [15] stood at 7 nM. Also, in [16], the IC50 amounted to 4 nM. In addition, the IC50 in series [17] was less than 1 nM. In addition, the 50% inhibitory concentration (IC50) in series [18] is less than 1 nM. In addition, in [19], the half-maximal inhibitory concentration (IC50) lay within 3 to 8 nM. Further, in series [20], the half-maximal inhibitory concentration (IC50) came to 3 nM.
